Test [1] concerns the target T1, Enterobacter soli LF7 MarR_Es (Enterobacter soli, UniProt A0AAW8H3I9, A146S).
T1 sequence (A0AAW8H3I9 1-157 A146S): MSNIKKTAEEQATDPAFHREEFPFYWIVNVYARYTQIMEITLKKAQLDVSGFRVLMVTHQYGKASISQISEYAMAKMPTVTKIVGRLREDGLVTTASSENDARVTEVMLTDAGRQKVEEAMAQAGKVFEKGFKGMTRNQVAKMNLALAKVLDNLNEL
Briefly: ITC IAA binding to MarR_Es. Conditions: 25 °C, IacR.
Procedure: All ITC measurements were performed at 25 °C using an Auto-ITC200 microcalorimeter (MicroCal/GE Healthcare). The buffer employed was 20 mM HEPES, pH 7.4, 50 mM NaCl and 0.5% dimethly sulfoxide (DMSO) for protein/ligand binding and 20 mM HEPES, pH 7.4 and 300 mM NaCl for DNA/protein binding experiments. For ligand binding experiments, the calorimetry cell (volume 200 ml) was loaded with MarR wild-type, mutant or homologue protein at a concentration of 50 μM. The syringe was loaded with a ligand concentration of 0.5 or 2 mM. […] A typical injection protocol included a single 0.2 μl first injection followed by 20 1.5 μl injections of the syringe sample into the calorimetry cell. The spacing between injections was kept at 180 s and the reference power at 8 μcal s^−1. The data were analysed using Origin for ITC version 7.0 software supplied by the manufacturer and fit well to a one-site binding model. Two independent ITC measurements were performed for each condition.

The target of the next test is MarR_73 S28A R46A (Variovorax paradoxus, UniProt C5CSP2, R46A/S28A). Particulars: ITC, 25 °C; mutant S28A R46A. The procedure:
(§1) The coding sequence for each gene can be found in Supplementary Table 10. MarR expression plasmids were synthesized as codon-optimized genes for E. coli expression by BioBasic in the pLIC-His N-term vector (pMCSG7) and transformed into E. coli BL21 (DE3) Gold cells for expression. […] At an OD600 of 0.8, protein expression was induced by the addition of 0.1 mM IPTG and incubation continued overnight. Cells were collected by centrifugation at 4,500 × g for 20 min at 4 °C in a Sorvall (model RC-3B) swinging bucket centrifuge. Cell pellets were resuspended in buffer A (20 mM potassium phosphate, pH 7.4, 50 mM imidazole, 500 mM NaCl), DNase, lysozyme and a Roche Complete EDTA-free protease inhibitor tablet. Resuspended cells were sonicated and clarified via centrifugation at 17,000 × g for 60 min in a Sorvall (model RC-5B) swinging bucket centrifuge. The lysate was applied to a nickel-nitrilotriacetic acid HP column (GE Healthcare) on an Aktaxpress Fast Performance Liquid Chromatography (FPLC) system (Amersham Bioscience) and washed with buffer A. Protein was eluted with buffer B (20 mM potassium phosphate, pH 7.4, 500 mM imidazole, 500 mM NaCl). Fractions containing the protein of interest were combined and passed over a HiLoadTM 16/60 SuperdexTM 200 gel filtration column. Proteins were eluted in S200 buffer (20 mM HEPES, pH 7.4, 300 mM NaCl). […]
Background: ITC needs no label: the signal is the heat of the interaction.

In test [2] the target is Pseudomonas putida 1290 MarR_iacR (Pseudomonas putida, UniProt B0FXI7). Nature of the test: ITC IAA binding to MarR_iacR. Particulars: 25 °C, IacR. As for the experimental part:
as §1

Another test deals with MarR_73 R46A (Variovorax paradoxus, UniProt C5CSP2, R46A). Briefly: biochemical. As for the experimental part: (§2) The coding sequence for each gene can be found in Supplementary Table 10. MarR expression plasmids were synthesized as codon-optimized genes for E. coli expression by BioBasic in the pLIC-His N-term vector (pMCSG7) and transformed into E. coli BL21 (DE3) Gold cells for expression. […] At an OD600 of 0.8, protein expression was induced by the addition of 0.1 mM IPTG and incubation continued overnight. Cells were collected by centrifugation at 4,500 × g for 20 min at 4 °C in a Sorvall (model RC-3B) swinging bucket centrifuge. Cell pellets were resuspended in buffer A (20 mM potassium phosphate, pH 7.4, 50 mM imidazole, 500 mM NaCl), DNase, lysozyme and a Roche Complete EDTA-free protease inhibitor tablet. Resuspended cells were sonicated and clarified via centrifugation at 17,000 × g for 60 min in a Sorvall (model RC-5B) swinging bucket centrifuge. The lysate was applied to a nickel-nitrilotriacetic acid HP column (GE Healthcare) on an Aktaxpress Fast Performance Liquid Chromatography (FPLC) system (Amersham Bioscience) and washed with buffer A. Protein was eluted with buffer B (20 mM potassium phosphate, pH 7.4, 500 mM imidazole, 500 mM NaCl). Fractions containing the protein of interest were combined and passed over a HiLoadTM 16/60 SuperdexTM 200 gel filtration column. Proteins were eluted in S200 buffer (20 mM HEPES, pH 7.4, 300 mM NaCl). Fractions were combined and concentrated for long-term storage at −80 °C.
MarR_73 R46A, sequence (C5CSP2 1-158, stated change not applied): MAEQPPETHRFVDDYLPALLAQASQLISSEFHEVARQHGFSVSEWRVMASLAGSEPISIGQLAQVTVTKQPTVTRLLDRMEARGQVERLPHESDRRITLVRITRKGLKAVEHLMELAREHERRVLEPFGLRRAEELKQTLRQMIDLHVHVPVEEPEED
(§3) MarR mutant proteins were created by site-directed mutagenesis using primers from Integrated DNA Technologies. […] The mutants were produced and purified using E. coli BL21 (DE3) Gold as described above.
(§4) All ITC measurements were performed at 25 °C using an Auto-ITC200 microcalorimeter (MicroCal/GE Healthcare). The buffer employed was 20 mM HEPES, pH 7.4, 50 mM NaCl and 0.5% dimethly sulfoxide (DMSO) for protein/ligand binding and 20 mM HEPES, pH 7.4 and 300 mM NaCl for DNA/protein binding experiments. For ligand binding experiments, the calorimetry cell (volume […]) was loaded with MarR wild-type, mutant or homologue protein at a concentration of 50 μM. The syringe was loaded with a ligand concentration of 0.5 or 2 mM. […] A typical injection protocol included a single 0.2 μl first injection followed by 20 1.5 μl injections of the syringe sample into the calorimetry cell. The spacing between injections was kept at 180 s and the reference power at 8 μcal s^−1. […] Two independent ITC measurements were performed for each condition.

The target in another test is MarR_73 H32A (Variovorax paradoxus, UniProt C5CSP2, H32A). Nature of the test: biochemical. The procedure: as §2, §3, §4
MarR_73 H32A, sequence (C5CSP2 1-158, stated change not applied): as above
The next test has as its target MarR_73 S28A (Variovorax paradoxus, UniProt C5CSP2, S28A). Nature of the test: biochemical. As for the experimental part:
as §2, §3, §4

The structures appear in SMILES notation.

MarR_73 S28A, sequence (C5CSP2 1-158, stated change not applied): as above
Pseudomonas putida 1290 MarR_iacR, sequence (B0FXI7 whole entry): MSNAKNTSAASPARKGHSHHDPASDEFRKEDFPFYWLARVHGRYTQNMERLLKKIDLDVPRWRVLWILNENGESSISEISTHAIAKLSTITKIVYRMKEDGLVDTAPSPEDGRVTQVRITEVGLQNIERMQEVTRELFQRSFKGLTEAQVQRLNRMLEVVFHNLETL
MarR_73 S28A R46A, sequence (C5CSP2 1-158, stated change not applied): as the sequence (C5CSP2 1-158, stated change not applied) above

For the compound `O=C(O)Cc1c[nH]c2ccccc12` [IAA, indole-3-acetic acid], the N1 was found to be 0.967 ± 0.006 in test [1] and 0.590± 0.032 in test [2]. Also, the N at MarR_73 S28A R46A is listed as 1.2 ± 0.2; on MarR_73 R46A (ITC, 25 °C, mutant R46A), 1.1 ± 0.1; on MarR_73 H32A (ITC, 25 °C, mutant H32A), 0.28 ± 0.01; on MarR_73 S28A (ITC, 25 °C, mutant S28A), 0.52 ± 0.01. Besides, the Kd in test [2] (read-out: KD1) turned out to be 4.45 ± 0.196 µM; on MarR_73 R46A, 11 ± 1 µM; on MarR_73 H32A, 3.1 ± 0.1 µM; at MarR_73 S28A, 2400 ± 100 nM.

Values taken from PMC9613470, “Diverse MarR bacterial regulators of auxin catabolism in the plant microbiome” (Nature Microbiology, 2022).
